PubChem BioAssay (NCI)
Where “and” joins values, the source holds several entries; their conditions need not be identical. Equal entries are not always repeated.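 96-well plates; 48 h exposure; 5 concentrations. Endpoints by linear interpolation between flanking doses. Not reached: highest tested concentration assigned. At the GI50, growth is halved. TGI marks complete inhibition of growth.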

Experiments:
Assay in all cases: NCI tumour cell line growth inhibition, 48 h
K-562 leukemia = system: K-562 leukemia
SK-MEL-28 melanoma = system: SK-MEL-28 melanoma
ACHN renal = system: ACHN renal
OVCAR-4 ovarian = system: OVCAR-4 ovarian
PC-3 prostate = system: PC-3 prostate
HOP-62 NSCLC = system: HOP-62 NSCLC
M14 melanoma = system: M14 melanoma
NCI-H23 lung = system: NCI-H23 lung
MDA-MB-231 breast = system: MDA-MB-231 breast
HS 578T breast = system: HS 578T breast

Structure (SMILES) | GI50 (K-562 leukemia) | TGI (K-562 leukemia) | GI50 (SK-MEL-28 melanoma) | TGI (SK-MEL-28 melanoma) | GI50 (ACHN renal) | TGI (ACHN renal) [µM] | GI50 (OVCAR-4 ovarian) | TGI (OVCAR-4 ovarian) [µM] | GI50 (PC-3 prostate) | TGI (PC-3 prostate) | GI50 (HOP-62 NSCLC) | TGI (HOP-62 NSCLC) [µM] | GI50 (M14 melanoma) | TGI (M14 melanoma) | GI50 (NCI-H23 lung) | TGI (NCI-H23 lung) [µM] | GI50 (MDA-MB-231 breast) | TGI (MDA-MB-231 breast) [µM] | GI50 (HS 578T breast) | TGI (HS 578T breast)
COc1ccc(C2CC(c3ccc(N(C)C)cc3)=NN2c2ccc(S(N)(=O)=O)cc2)cc1 (stereo not given) | 3.8 µM | > 100 µM | 4.81 µM | 93.8 µM | 3.37 µM | > 100 | 3.19 µM | > 100 | 3.65 µM | > 100 µM | 3.96 µM | > 100 | 4.42 µM | > 100 µM | 3.13 µM | > 100 | 4.73 µM | 60.3 | 5.52 µM | 42.6 µM
Cc1ccc(S(=O)(=O)NC(=O)OC23COCN2COC3)cc1 | – | > 100 µM | – | > 100 µM | – | > 100 | – | > 100 | – | > 100 µM | – | > 100 | – | > 100 µM | – | > 100 | – | > 100 | – | > 100 µM
NC(=O)CC(N)c1nn[nH]n1 (stereo not given) | – | > 100 µM | – | > 100 µM | – | > 100 | – | > 100 | – | > 100 µM | – | > 100 | – | > 100 µM | – | > 100 | – | > 100 | – | > 100 µM
O=S(=O)(O)c1ccc2cc3nn(-c4ccc(/C=C/c5ccc(-n6nc7cc8ccc(S(=O)(=O)O)cc8cc7n6)cc5S(=O)(=O)O)c(S(=O)(=O)O)c4)nc3cc2c1 | 61 µM | > 100 µM | > 100 µM | > 100 µM | 81.6 µM | > 100 | > 100 µM | > 100 | 74.7 µM | > 100 µM | > 100 µM | > 100 | 44.5 µM | > 100 µM | > 100 µM | > 100 | 37 µM | > 100 | > 100 µM | > 100 µM
COc1ccc(-c2[nH]c3ccccc3c2/C=C(\C#N)S(=O)(=O)c2ccccc2)cc1 | 0.535 µM | > 100 µM | 1.48 µM | > 71.9 µM | 1.91 µM | > 100 | 0.559 µM | > 31.8 | 0.533 µM | > 68.8 µM | 0.958 µM | > 35.3 | 0.383 µM | 14.4 µM | 0.769 µM | > 61.1 | 0.58 µM | > 60.8 | 0.671 µM | > 46 µM
Fc1ccc2nc(-c3nc(-c4ccccc4)n4ccccc34)[nH]c2c1 | 3.47 µM | > 100 µM | 2.13 µM | 5.51 µM | 2.25 µM | 5.94 | 1.93 µM | 6.31 | 1.82 µM | 4.24 µM | 1.94 µM | 3.84 | 3.83 µM | 14.1 µM | 3.54 µM | 17 | 2.45 µM | 10.7 | 3.56 µM | 25 µM
Nc1nc(-c2ccc(Cl)cc2)nc2c1sc(=S)n2-c1ccccc1 | 4.75 µM | > 100 µM | 5.22 µM | > 100 µM | 1.83 µM | 3.82 | 1.95 µM | 4.57 | 17.3 µM | > 100 µM | 3.4 µM | 11.7 | 7.87 µM | 38.1 µM | 4.05 µM | 18.2 | 3.44 µM | 10.6 | 3.31 µM | 9.39 µM
NCc1ccc(-c2nc(-c3ccc(Cl)c(O)c3)c(-c3ccncc3)[nH]2)cc1 | > 25 µM | > 25 µM | 5.3 µM | > 25 µM | > 25 µM | > 25 | > 25 µM | > 25 | > 25 µM | > 25 µM | > 25 µM | > 25 | 5.47 µM | 24.7 µM | 13.5 µM | > 25 | 11.7 µM | > 25 | 11.9 µM | > 25 µM
CC(=O)N(O)c1ccc(/C=C/c2ccccc2)cc1 | 7.39 µM | > 100 µM | 9.39 µM | > 100 µM | 0.26 µM | 2.08 | 2.91 µM | > 82.1 | 2.32 µM | > 100 µM | 1.98 µM | > 35.7 | 3.35 µM | > 100 µM | 3.6 µM | 36.3 | 3.41 µM | 21.8 | 3.62 µM | 68.8 µM
CC1(C)[C@H](O)[C@H](F)C[C@@]2(C)Oc3ccc(C(=O)Nc4ccc5c(c4)NC(=O)C54CCN(CCCCC#N)CC4)cc3C[C@H]12 | 0.0573 µM and 0.012 µM | 4.81 µM and 1.48 µM | 1.25 µM and 1.2 µM | 3.61 µM and 3.43 µM | 0.961 µM and 5.29 µM | 23.2 | 4.31 µM and 6.31 µM | 20.4 | 0.0225 µM | 2.84 µM and 5.24 µM | 1.28 µM and 1.13 µM | 5.61 | 0.606 µM and 1.06 µM | 4.97 µM and 3.79 µM | 2.44 µM and 2.29 µM | 17.8 | 0.842 µM and 0.537 µM | 8.56 | 0.00265 µM | 0.035 µM and 0.0352 µM
O=[N+]([O-])c1cc(Cc2cc([N+](=O)[O-])c3cccnc3c2O)c(O)c2ncccc12 | – | > 100 µM | – | 37.4 µM | – | 41.3 | – | > 74.1 | – | 23.4 µM | – | 42.4 | – | 30.1 µM | – | > 100 | – | 25.9 | – | 52.1 µM
N#Cc1c(NC(=O)c2ccccc2F)sc2c1CCCC2 | 5.07 µM | > 25 µM | > 25 µM | > 25 µM | > 25 µM | > 25 | > 25 µM | > 25 | > 25 µM | > 25 µM | > 25 µM | > 25 | > 25 µM | > 25 µM | > 25 µM | > 25 | > 23.5 µM | > 25 | > 21.9 µM | > 25 µM
S=C(NCc1ccc2c(c1)OCO2)N1CCN(c2ncnc3c2oc2ccccc23)CC1 | 3.6 µM | > 100 µM | > 100 µM | > 100 µM | > 63.3 µM | > 100 | 0.451 µM | > 100 | 6.88 µM | > 100 µM | > 100 µM | > 100 | > 71.4 µM | > 100 µM | 5.34 µM | > 100 | > 100 µM | > 100 | > 100 µM | > 100 µM
O=c1[nH]c(=S)[nH]c(-c2ccccc2)c1Cc1c(O)ccc2ccccc12 | – | > 100 µM | – | > 100 µM | – | > 100 | – | > 100 | – | > 100 µM | – | > 100 | – | 78.5 µM | – | 90.6 | – | > 100 | – | > 100 µM
COc1ccc(OC)c(Cc2cnc3nc(N)nc(N)c3c2C)c1 | – | 14.9 µM | – | > 51 µM | – | 20.1 | – | 28.8 | – | 27.7 µM | – | 17.3 | – | > 41.9 µM | – | > 50.1 | – | 33.8 | – | 49.7 µM
O=C(c1cc(Cc2n[nH]c(=O)c3ccccc23)ccc1F)N1CCN(C(=O)C2CC2)CC1 | 54.5 µM and > 66.4 µM | > 100 µM | > 100 µM | > 100 µM | 96.1 µM and 88.2 µM | > 100 | 22.7 µM and 36 µM | > 100 | 43.1 µM and > 71.4 µM | > 100 µM | 43.2 µM | > 100 | 73.3 µM and > 86 µM | > 100 µM | 23.6 µM and 40.3 µM | > 100 | > 100 µM | > 100 | 12.4 µM and > 100 µM | > 100 µM
c1ccc(C2CCCCC2)c(OCCCCCN2CCNCC2)c1 | 0.313 µM | 1.7 µM | 1.81 µM | 3.57 µM | 3.45 µM | 13.2 | 4.01 µM | 17 | 3.19 µM | 18.4 µM | 10.4 µM | 28.5 | 1.86 µM | 3.89 µM | 5.72 µM | 22.2 | 1.62 µM | 3.75 | 3.61 µM | 22.1 µM
Cc1cc(O)c2c3c(ccc2c1)C(=O)c1c(O)cccc1C3=O | – | > 100 µM | – | > 100 µM | – | > 100 | – | 29.8 | – | > 100 µM | – | > 100 | – | > 26.2 µM | – | > 100 | – | > 100 | – | > 100 µM
COc1cc(C(=O)/C=C/c2c(C(F)(F)F)nc3ccccn23)cc(OC)c1OC | 2.83 µM | > 100 µM | 1.93 µM | 3.74 µM | 1.95 µM | 3.79 | 4.1 µM | > 100 | 3.8 µM | 32.8 µM | 2.97 µM | 8.53 | 1.82 µM | 4.06 µM | 1.51 µM | 4.01 | 4.59 µM | 19.3 | 3.27 µM | 54.6 µM
COCCOCCOCCOCCOC(=O)OC[n+]1ccc(NC(=NCCCCCCOc2ccc(Cl)cc2)NC#N)cc1 | 4.58 µM | 20.5 µM | 11.1 µM | 23.5 µM | 10.8 µM | 23.4 | 6.47 µM | 19.9 | < 0.01 µM | 14.2 µM | 9.58 µM | 24.1 | 0.0409 µM | 14.7 µM | 4.23 µM | 23.1 | 5.19 µM | 23.7 | 1.11 µM | 43.6 µM
N#C/C(=C\c1cc2ccc(N3CCC3)cc2oc1=O)C(=O)N(CC(=O)O)CC(=O)O | 97.2 µM | > 100 µM | > 100 µM | > 100 µM | > 100 µM | > 100 | > 100 µM | > 100 | > 100 µM | > 100 µM | > 100 µM | > 100 | > 100 µM | > 100 µM | > 100 µM | > 100 | > 100 µM | > 100 | > 100 µM | > 100 µM
